{
  "source": "ChEMBL document CHEMBL1212738",
  "about": "“Phenotypic and genotypic characterization of Enterobacteriaceae with decreased susceptibility to carbapenems: results from large hospital-based surveillance studies in China” (2010)",
  "key": {"Klebsiella pneumoniae [1]": {"tested_on": "Klebsiella pneumoniae", "assay": "Antimicrobial activity against Klebsiella pneumoniae ZJ70T expressing KPC-2 by CLSI method", "assay_type": "functional"}, "Klebsiella pneumoniae [2]": {"tested_on": "Klebsiella pneumoniae", "assay": "Antimicrobial activity against Klebsiella pneumoniae WH76 expressing IMP-4, TEM-1, SHV-14, CTX-M-3, qnrS1 by CLSI method", "assay_type": "functional"}, "Escherichia coli [3]": {"tested_on": "Escherichia coli", "assay": "Antimicrobial activity against Escherichia coli HX74T expressing CTX-M-3 by CLSI method", "assay_type": "functional"}, "Klebsiella pneumoniae [4]": {"tested_on": "Klebsiella pneumoniae", "assay": "Antimicrobial activity against Klebsiella pneumoniae WH97 expressing SHV-33, aac(6')-Ib, ompK35 DE by CLSI method", "assay_type": "functional"}, "Escherichia coli [5]": {"tested_on": "Escherichia coli", "assay": "Antimicrobial activity against Escherichia coli C600 transconjugant WH76T expressing IMP-4, TEM-1, CTX-M-3, qnrS1 by CLSI method"}, "Klebsiella pneumoniae [6]": {"tested_on": "Klebsiella pneumoniae", "assay": "Antimicrobial activity against carbapenem-resistant Klebsiella pneumoniae PU5 deficient in SHV-12, DHA-1, aac(6')-Ib-cr, ompK35/36 by CLSI method", "assay_type": "functional"}, "Enterobacter cloacae [7]": {"tested_on": "Enterobacter cloacae", "assay": "Antimicrobial activity against carbapenem-resistant Enterobacter cloacae GX24 deficient in TEM-1, DHA-1, aac(6')-Ib, ompC by CLSI method", "assay_type": "functional"}, "Escherichia coli [8]": {"tested_on": "Escherichia coli", "assay": "Antimicrobial activity against Escherichia coli C600 by CLSI method", "assay_type": "functional"}, "Escherichia coli [9]": {"tested_on": "Escherichia coli", "assay": "Antimicrobial activity against carbapenem-resistant Escherichia coli PU102 deficient in TEM-1, CTX-M-14, CMY-2, aac(6')-Ib, ompC DEc, ompF by CLSI method", "assay_type": "functional"}, "Klebsiella pneumoniae [10]": {"tested_on": "Klebsiella pneumoniae", "assay": "Antimicrobial activity against carbapenem-resistant Klebsiella pneumoniae ZJ18 deficient in KPC-2, SHV-28, DHA-1, ompK35 by CLSI method", "assay_type": "functional"}, "Enterobacter cloacae [11]": {"tested_on": "Enterobacter cloacae", "assay": "Antimicrobial activity against carbapenem-resistant Enterobacter cloacae GX56 deficient in ompC and expressing low levels of ompF DE by CLSI method", "assay_type": "functional"}, "Klebsiella pneumoniae [12]": {"tested_on": "Klebsiella pneumoniae", "assay": "Antimicrobial activity against carbapenem-resistant Klebsiella pneumoniae PU4 deficient in SHV-1, DHA-1, ompK35/36 by CLSI method", "assay_type": "functional"}, "Escherichia coli [13]": {"tested_on": "Escherichia coli", "assay": "Antimicrobial activity against Escherichia coli C600 transconjugant GZ66T expressing SHV-11, DHA-1 by CLSI method"}, "Klebsiella pneumoniae [14]": {"tested_on": "Klebsiella pneumoniae", "assay": "Antimicrobial activity against carbapenem-resistant Klebsiella pneumoniae ZJ68 deficient in CTX-M-15, ompK35/36 by CLSI method"}, "Escherichia coli [15]": {"tested_on": "Escherichia coli", "assay": "Antimicrobial activity against carbapenem-resistant Escherichia coli PU96 deficient in TEM-1, CTX-M-14, CMY-2, ompC/F by CLSI method", "assay_type": "functional"}, "Enterobacter cloacae [16]": {"tested_on": "Enterobacter cloacae", "assay": "Antimicrobial activity against carbapenem-resistant Enterobacter cloacae RJ94 deficient in IMP-4, TEM-1, CTX-M-3, ompC by CLSI method", "assay_type": "functional"}, "Citrobacter freundii [17]": {"tested_on": "Citrobacter freundii", "assay": "Antimicrobial activity against Citrobacter freundii RJ78 expressing CMY-2, qnrA1, aac(6')-Ib-cr, ompC by CLSI method", "assay_type": "functional"}, "Enterobacter cloacae [18]": {"tested_on": "Enterobacter cloacae", "assay": "Antimicrobial activity against carbapenem-resistant Enterobacter cloacae NJ90 deficient in CTX-M-14, ompC/F by CLSI method", "assay_type": "functional"}, "Klebsiella aerogenes": {"tested_on": "Klebsiella aerogenes", "assay": "Antimicrobial activity against carbapenem-resistant Enterobacter aerogenes WH85 deficient in TEM-1, CTX-M-3, ompC/F by CLSI method", "assay_type": "functional"}, "Klebsiella pneumoniae [19]": {"tested_on": "Klebsiella pneumoniae", "assay": "Antimicrobial activity against Klebsiella pneumoniae GZ64 expressing IMP-4, ompK35/36 by CLSI method", "assay_type": "functional"}, "Escherichia coli [20]": {"tested_on": "Escherichia coli", "assay": "Antimicrobial activity against carbapenem-resistant Escherichia coli PU60 deficient in TEM-1, CMY-2, ompC/F by CLSI method", "assay_type": "functional"}, "Citrobacter freundii [21]": {"tested_on": "Citrobacter freundii", "assay": "Antimicrobial activity against Citrobacter freundii SZ63T expressing IMP-4, qnrS1by CLSI method", "assay_type": "functional"}, "Klebsiella pneumoniae [22]": {"tested_on": "Klebsiella pneumoniae", "assay": "Antimicrobial activity against carbapenem-resistant Klebsiella pneumoniae SX67 deficient in SHV-2, CTX-M-14, DHA-1, qnrB6/S1, aac(6')-Ib-cr, ompK35/36 by CLSI method", "assay_type": "functional"}, "Enterobacter cloacae [23]": {"tested_on": "Enterobacter cloacae", "assay": "Antimicrobial activity against carbapenem-resistant Enterobacter cloacae SZ93 deficient in ompC by CLSI method", "assay_type": "functional"}, "Escherichia coli [24]": {"tested_on": "Escherichia coli", "assay": "Antimicrobial activity against Escherichia coli PU60T expressing CMY-2 by CLSI method", "assay_type": "functional"}, "Klebsiella pneumoniae [25]": {"tested_on": "Klebsiella pneumoniae", "assay": "Antimicrobial activity against carbapenem-resistant Klebsiella pneumoniae PU105 deficient TEM-1, SHV-12, CTX-M-14, DHA-1, qnrB10/B4-like, aac(6')-Ib-cr, ompK35/36 by CLSI method", "assay_type": "functional"}, "Escherichia coli [26]": {"tested_on": "Escherichia coli", "assay": "Antimicrobial activity against Escherichia coli ZJ87 expressing KPC-2, TEM-1, ompC by CLSI method", "assay_type": "functional"}, "Klebsiella pneumoniae [27]": {"tested_on": "Klebsiella pneumoniae", "assay": "Antimicrobial activity against carbapenem-resistant Klebsiella pneumoniae PU104 deficient in TEM-1, SHV-11, CTX-M-15, qnrS1, ompK35/36 by CLSI method", "assay_type": "functional"}, "Escherichia coli [28]": {"tested_on": "Escherichia coli", "assay": "Antimicrobial activity against Escherichia coli PU101T expressing CMY-2 by CLSI method", "assay_type": "functional"}, "Klebsiella pneumoniae [29]": {"tested_on": "Klebsiella pneumoniae", "assay": "Antimicrobial activity against carbapenem-resistant Klebsiella pneumoniae GZ83 deficient in SHV-11, CTX-M-14, ompK35/36 by CLSI method", "assay_type": "functional"}, "Klebsiella pneumoniae [30]": {"tested_on": "Klebsiella pneumoniae", "assay": "Antimicrobial activity against Klebsiella pneumoniae FZ47T expressing IMP-8, TEM-1, CTX-M-14, qnrB2, aac(6')-Ib by CLSI method", "assay_type": "functional"}, "Klebsiella pneumoniae [31]": {"tested_on": "Klebsiella pneumoniae", "assay": "Antimicrobial activity against carbapenem-resistant Klebsiella pneumoniae CY75 deficient in SHV-11, DHA-1, ompK35/36 by CLSI method", "assay_type": "functional"}},
  "data": [
    {"smiles": "CN(C)c1cc(NC(=O)CNC(C)(C)C)c(O)c2c1C[C@H]1C[C@H]3[C@H](N(C)C)C(O)=C(C(N)=O)C(=O)[C@@]3(O)C(O)=C1C2=O", "note": "[TIGECYCLINE]", "values": [
      {"measurement": "MIC", "setting": "Klebsiella pneumoniae [1]", "value": 0.13, "unit": "µg/mL"},
      {"measurement": "MIC", "setting": "Klebsiella pneumoniae [2]", "value": 0.5, "unit": "µg/mL"},
      {"measurement": "MIC", "setting": "Escherichia coli [3]", "value": 0.125, "unit": "µg/mL"},
      {"measurement": "MIC", "setting": "Klebsiella pneumoniae [4]", "value": 0.5, "unit": "µg/mL"},
      {"measurement": "MIC", "setting": "Escherichia coli [5]", "value": 0.06, "unit": "µg/mL"},
      {"measurement": "MIC", "setting": "Klebsiella pneumoniae [6]", "value": 0.5, "unit": "µg/mL"},
      {"measurement": "MIC", "setting": "Enterobacter cloacae [7]", "value": 1, "unit": "µg/mL"},
      {"measurement": "MIC", "setting": "Escherichia coli [8]", "value": 0.06, "unit": "µg/mL"},
      {"measurement": "MIC", "setting": "Escherichia coli [9]", "value": 0.25, "unit": "µg/mL"},
      {"measurement": "MIC", "setting": "Klebsiella pneumoniae [10]", "value": 1, "unit": "µg/mL"},
      {"measurement": "MIC", "setting": "Enterobacter cloacae [11]", "value": 4, "unit": "µg/mL"},
      {"measurement": "MIC", "setting": "Klebsiella pneumoniae [12]", "value": 4, "unit": "µg/mL"},
      {"measurement": "MIC", "setting": "Escherichia coli [13]", "value": 0.125, "unit": "µg/mL"},
      {"measurement": "MIC", "setting": "Klebsiella pneumoniae [14]", "value": 0.125, "unit": "µg/mL"},
      {"measurement": "MIC", "setting": "Escherichia coli [15]", "value": 1, "unit": "µg/mL"},
      {"measurement": "MIC", "setting": "Enterobacter cloacae [16]", "value": 1, "unit": "µg/mL"},
      {"measurement": "MIC", "setting": "Citrobacter freundii [17]", "value": 1, "unit": "µg/mL"},
      {"measurement": "MIC", "setting": "Enterobacter cloacae [18]", "value": 0.5, "unit": "µg/mL"},
      {"measurement": "MIC", "setting": "Klebsiella aerogenes", "value": 0.064, "unit": "µg/mL"},
      {"measurement": "MIC", "setting": "Klebsiella pneumoniae [19]", "value": 0.5, "unit": "µg/mL"},
      {"measurement": "MIC", "setting": "Escherichia coli [20]", "value": 0.125, "unit": "µg/mL"},
      {"measurement": "MIC", "setting": "Citrobacter freundii [21]", "value": 0.13, "unit": "µg/mL"},
      {"measurement": "MIC", "setting": "Klebsiella pneumoniae [22]", "value": 0.5, "unit": "µg/mL"},
      {"measurement": "MIC", "setting": "Enterobacter cloacae [23]", "value": 1, "unit": "µg/mL"},
      {"measurement": "MIC", "setting": "Escherichia coli [24]", "value": 0.125, "unit": "µg/mL"},
      {"measurement": "MIC", "setting": "Klebsiella pneumoniae [25]", "value": 2, "unit": "µg/mL"},
      {"measurement": "MIC", "setting": "Escherichia coli [26]", "value": 0.25, "unit": "µg/mL"},
      {"measurement": "MIC", "setting": "Klebsiella pneumoniae [27]", "value": 0.5, "unit": "µg/mL"},
      {"measurement": "MIC", "setting": "Escherichia coli [28]", "value": 0.25, "unit": "µg/mL"},
      {"measurement": "MIC", "setting": "Klebsiella pneumoniae [29]", "value": 0.5, "unit": "µg/mL"},
      {"measurement": "MIC", "setting": "Klebsiella pneumoniae [30]", "value": 0.06, "unit": "µg/mL"},
      {"measurement": "MIC", "setting": "Klebsiella pneumoniae [31]", "value": 1, "unit": "µg/mL"}
    ]}
  ]
}
